Results taken from patent publication US5672715A, “Herbicidal substituted 3-aryl-pyrazoles” (Monsanto Company, priority 1995, dated 1997).

Key:
Type in all cases: in vivo
Rape [1] = assay: post-emergence herbicide test; settings: post-emergence, 0.25 lb/A; read-out: % plant inhibition
Source text: (§1) Topsoil was placed in aluminum pans having holes in the bottom and compacted to a depth of 1.3 to 1.6 cm from the top of the pan. A predetermined number of seeds of each of several dicotyledonous and monocotyledonous annual plant species and/or vegetative propagules for the perennial plant species were placed on the soil and pressed into the soil surface. The seeds and/or vegetative propagules were covered with soil and leveled. The pans were then placed on a bench in the greenhouse and watered either from overheard irrigation or by subirrigation as needed. After the plants reach the desired age (two to three weeks), each pan, is removed individually to a spraying chamber and sprayed by means of an atomizer, operating at a spray pressure of 170.3 kPa […] at the application rates noted. In the spray solution was an amount of an emulsifying agent mixture to give a spray solution or suspension which contains about 0.4% by volume of the emulsifier. The spray solution or suspension contained a sufficient amount of the candidate chemical in order to give application rates of the active ingredient corresponding to those shown in Tables 4 and 5, while applying a total amount of solution or suspension equivalent to 1870 L/Ha (200 gallons/acre). […] The post-emergent herbicidal activity shown in these tables is the percent inhibition of each plant species. Testing with warm season and cool season plants is shown in tables 4a-4d and […], respectively.

Morning Glory = assay: post-emergence herbicide test; settings: Ipomoea, post-emergence, 0.25 lb/A; read-out: % plant inhibition
Source text: as §1

Velvetleaf [2] = assay: post-emergence herbicide test; settings: Abutilon theophrasti, post-emergence, 0.25 lb/A; read-out: % plant inhibition
Source text: as §1

Seedling Johnsongrass = assay: post-emergence herbicide test; settings: Sorghum halepense, post-emergence, 0.25 lb/A; read-out: % plant inhibition
Source text: as §1

Wheat [3] = assay: post-emergence herbicide test; settings: Triticum aestivum, post-emergence, 0.25 lb/A; read-out: % plant inhibition
Source text: as §1

Giant Foxtail = assay: post-emergence herbicide test; settings: Setaria faberi, post-emergence, 0.25 lb/A; read-out: % plant inhibition
Source text: as §1

Cocklebur = assay: post-emergence herbicide test; settings: Xanthium strumarium, post-emergence, 0.25 lb/A; read-out: % plant inhibition
Source text: as §1

Corn = assay: post-emergence herbicide test; settings: Zea mays, post-emergence, 0.25 lb/A; read-out: % plant inhibition
Source text: as §1

Soybean [4] = assay: post-emergence herbicide test; settings: Glycine max, post-emergence, 0.25 lb/A; read-out: % plant inhibition
Source text: as §1

Blackgrass [5] = assay: post-emergence herbicide test; settings: Alopecurus myosuroides, post-emergence, 0.25 lb/A; read-out: % plant inhibition
Source text: as §1

Downy Brome [6] = assay: post-emergence herbicide test; settings: Bromus tectorum, post-emergence, 0.25 lb/A; read-out: % plant inhibition
Source text: as §1

Green Foxtail [7] = assay: post-emergence herbicide test; settings: Setaria viridis, post-emergence, 0.25 lb/A; read-out: % plant inhibition
Source text: as §1

Barnyardgrass = assay: post-emergence herbicide test; settings: Echinochloa crus-galli, post-emergence, 0.25 lb/A; read-out: % plant inhibition
Source text: as §1

Bedstraw Catchweed [8] = assay: post-emergence herbicide test; settings: Galium aparine, post-emergence, 0.25 lb/A; read-out: % plant inhibition
Source text: as §1

Wild Oats [9] = assay: post-emergence herbicide test; settings: Avena fatua, post-emergence, 0.25 lb/A; read-out: % plant inhibition
Source text: as §1

Common Chickweed [10] = assay: post-emergence herbicide test; settings: post-emergence, 0.25 lb/A; read-out: % plant inhibition
Source text: as §1

Birdseye Speedwell [11] = assay: post-emergence herbicide test; settings: post-emergence, 0.25 lb/A; read-out: % plant inhibition
Source text: as §1

Rape [12] = assay: pre-emergence herbicide test; settings: pre-emergence, 0.25 lb/A; read-out: % plant inhibition
Method: (§2) Topsoil was placed in an aluminum pan and compacted to a depth of 1.3 to 1.6 cm from the top of the pan. On the top of the soil was placed a predetermined number of seeds of each of several monocotyledonous and dicotyledonous annual plant species and/or vegetative propagules of various perennial plant species. The pan was then level filled with a cover layer of topsoil to which was added a known amount of active ingredient either prior to or after application of the cover layer. The active ingredient was dissolved or suspended in an organic solvent, e.g., acetone, or water as carrier for application to the cover layer. The pans were moved to a greenhouse bench where they were thereafter watered from below as needed to give adequate moisture for germination and growth. In some cases, an initial overhead irrigation of 1/4 inch of water was applied immediately after treatment.
(§3) Approximately 14 days after seeding and treating, the pans were observed and the results (% inhibition) were recorded.
(§4) The tables below summarize the results of the pre-emergence herbicidal activity tests of compounds of this invention tested with warm season plants (Tables 2a-2d) and cool season plants (Tables 3a and 3b). The herbicidal rating shown in these tables is the percent inhibition of each plant species. The plant species usually regarded as weeds are identified in the tables by single letter headings and crop species identified by two letter headings both headings being above the columns in accordance with the following legend: […]

Velvetleaf [13] = assay: pre-emergence herbicide test; settings: Abutilon theophrasti, pre-emergence, 0.25 lb/A; read-out: % plant inhibition
Method: as §2, §3, §4

Wheat [14] = assay: pre-emergence herbicide test; settings: Triticum aestivum, pre-emergence, 0.25 lb/A; read-out: % plant inhibition
Method: as §2, §3, §4

Soybean [15] = assay: pre-emergence herbicide test; settings: 0.25 lb/A
Method: as §2, §3, §4

Blackgrass [16] = assay: pre-emergence herbicide test; settings: Alopecurus myosuroides, pre-emergence, 0.25 lb/A; read-out: % plant inhibition
Method: as §2, §3, §4

Downy Brome [17] = assay: pre-emergence herbicide test; settings: Bromus tectorum, pre-emergence, 0.25 lb/A; read-out: % plant inhibition
Method: as §2, §3, §4

Green Foxtail [18] = assay: pre-emergence herbicide test; settings: Setaria viridis, pre-emergence; 0.25 lb/A; read-out: % plant inhibition
Method: as §2, §3, §4

Bedstraw Catchweed [19] = assay: pre-emergence herbicide test; settings: Galium aparine, pre-emergence, 0.25 lb/A; read-out: % plant inhibition
Method: as §2, §3, §4

Wild Oats [20] = assay: pre-emergence herbicide test; settings: Avena fatua, pre-emergence, 0.25 lb/A; read-out: % plant inhibition
Method: as §2, §3, §4

Common Chickweed [21] = assay: pre-emergence herbicide test; settings: pre-emergence, 0.25 lb/A; read-out: % plant inhibition
Method: as §2, §3, §4

Birdseye Speedwell [22] = assay: pre-emergence herbicide test; settings: pre-emergence, 0.25 lb/A; read-out: % plant inhibition
Method: as §2, §3, §4

| SMILES | inhibition at 280.212 g/ha (Rape [1]) [%] | inhibition at 280.212 g/ha (Morning Glory) [%] | inhibition at 280.212 g/ha (Velvetleaf [2]) [%] | inhibition at 280.212 g/ha (Seedling Johnsongrass) [%] | inhibition at 280.212 g/ha (Wheat [3]) [%] | inhibition at 280.212 g/ha (Giant Foxtail) [%] | inhibition at 280.212 g/ha (Cocklebur) [%] | inhibition at 280.212 g/ha (Corn) [%] | inhibition at 280.212 g/ha (Soybean [4]) [%] | inhibition at 280.212 g/ha (Blackgrass [5]) [%] | inhibition at 280.212 g/ha (Downy Brome [6]) [%] | inhibition at 280.212 g/ha (Green Foxtail [7]) [%] | inhibition at 280.212 g/ha (Barnyardgrass) [%] | inhibition at 280.212 g/ha (Bedstraw Catchweed [8]) [%] | inhibition at 280.212 g/ha (Wild Oats [9]) [%] | inhibition at 280.212 g/ha (Common Chickweed [10]) [%] | inhibition at 280.212 g/ha (Birdseye Speedwell [11]) [%] | inhibition at 280.212 g/ha (Rape [12]) [%] | inhibition at 280.212 g/ha (Wheat [14]) [%] | inhibition at 280.212 g/ha (Blackgrass [16]) [%] | further results |
| --- | --- | --- | --- | --- | --- | --- | --- | --- | --- | --- | --- | --- | --- | --- | --- | --- | --- | --- | --- | --- | --- |
| Cc1c(-c2cc(CO)c(Cl)cc2F)nn(C)c1C(F)(F)F [Compound 9, 2-Chloro-5-[1,4-dimethyl-5-(trifluoromethyl)-1H-pyrazol-3-yl]-4-fluorobenzenemethanol] | 20 | 45 | 95 | 20 | 13 | 10 | 35 | 10 | 60 | 20 | 25 | 20 | 25 | 50 | 25 | 15 | 35 | 30 | 0 | 50 | inhibition at 280.212 g/ha (Velvetleaf [13]): 98%; % plant inhibition (Soybean [15]): 0%; inhibition at 280.212 g/ha (Downy Brome [17]): 5%; inhibition at 280.212 g/ha (Green Foxtail [18]): 100%; inhibition at 280.212 g/ha (Bedstraw Catchweed [19]): 20%; inhibition at 280.212 g/ha (Wild Oats [20]): 5%; inhibition at 280.212 g/ha (Common Chickweed [21]): 90%; inhibition at 280.212 g/ha (Birdseye Speedwell [22]): 90% |
| Cc1c(-c2cc(CBr)c(Cl)cc2F)nn(C)c1C(F)(F)F [Compound 10, 3-[5-(Bromomethyl)-4-chloro-2-fluorophenyl]-1,4-dimethyl-5-(trifluoromethyl)-1H-pyrazole] | 35 | 35 | 90 | 15 | 10 | 15 | 55 | 3 | 8 | 20 | 25 | 50 | 5 | 25 | 10 | 15 | 90 | 50 | 0 | 20 | inhibition at 280.212 g/ha (Downy Brome [17]): 25%; inhibition at 280.212 g/ha (Green Foxtail [18]): 98%; inhibition at 280.212 g/ha (Bedstraw Catchweed [19]): 30%; inhibition at 280.212 g/ha (Wild Oats [20]): 5%; inhibition at 280.212 g/ha (Common Chickweed [21]): 5%; inhibition at 280.212 g/ha (Birdseye Speedwell [22]): 50% |
